This is an account of results in PubChem BioAssay (NCI).

Holding throughout (assay): NCI-60 cell line screen, 48 h
Assay [1] has as its system EKVX NSCLC.
The test system of assay [2] is K-562 leukemia.
The subject of assay [3] is NCI-H460 lung.
Assay [4] concerns OVCAR-8 ovarian.
In assay [5] the test system is SK-MEL-5 melanoma.
Assay [6] deals with SNB-19 CNS.
For assay [7], the system named is TK-10 renal.
Assay [8] concerns HS 578T breast.
In assay [9] the test system is HT29 colon.
Assay [10] deals with SF-268 CNS.

Molecules are shown by their SMILES. Where “and” joins values, the source holds several entries; their conditions need not be identical. Identical values can stand only once.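 Method: 48-hour compound exposure of cells in 96-well plates, five concentrations, linear interpolation of endpoints. GI50: concentration for 50% inhibition of growth. Definition used: TGI = concentration required for complete inhibition of growth.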

For `C=C1c2nc3ccccc3n2C=C(c2ccc(Cl)cc2)N1c1ccc(OC)cc1`, the TGI was 25.9 µM in assay [1]; over 100 µM in assay [2]; 18.7 µM in [3]; 15.8 µM in [4]; 46.2 µM in assay [5]; 12.7 µM in assay [6]. In [7], this molecule displayed a TGI of 13.2 µM.

Consider `C[C@]12CC[C@@H]3c4cc(I)c(O)cc4CC[C@H]3[C@@H]1CC[C@@H]2O`, for which the TGI is 15.6 µM in assay [1]; 8.6 µM in assay [8]; 34.3 µM in [9]; 24.2 µM in assay [2]; 16 µM in assay [3]; 40.2 µM in [4]. The TGI was 58.5 µM in [10], 12.2 µM in assay [5], 34.9 µM in [6] and 27.6 µM in assay [7].

For `NS(=O)(=O)c1cccc(NC(=S)NC(=O)Nc2ccc(Cl)c(Cl)c2)c1`, the TGI in [8] stood at 45.6 µM; in [9], 86.6 µM; in assay [2] it was 37.2 µM; in assay [3] it was 44.6 µM; in assay [4], 32.5 µM; in [10] it was 56.4 µM. The figures for the TGI in assay [5], in assay [6] and in assay [7] were 30.8 µM, 58.2 µM and over 100 µM, respectively.

With `CCOC(=O)c1nnsc1NN`, the TGI in assay [1], in assay [8], in assay [9], in assay [3], in assay [4] and in assay [10] was over 100 µM in each case. In addition, the TGI in assay [5], in [6] and in [7] was over 100 µM each time.

For the molecule `COC(=O)C1(Cc2ccc3c(c2)CCC3)Cc2ccccc2C1`, the TGI was over 100 µM in assay [1]; over 100 µM in assay [8]; 65 µM in [9]; 51.3 µM in assay [2]; over 100 µM in [3]; over 100 µM in assay [4]. The TGI in [10], in assay [6] and in assay [7] was over 100 µM each time.

Turning to `CCOC(=O)c1nc2cc(C(F)(F)F)ccc2nc1Nc1ccc(C(=O)NC(C(=O)OCC)C(=O)OCC)cc1`, the TGI is 66.2 µM in [1]; 37.5 µM in assay [8]; over 100 µM in [9]; over 100 µM in [2]; over 100 µM in [3]; 53.6 µM in assay [10]. Further, the TGI in assay [5] was 54.2 µM; in assay [6] it was 55.3 µM; in assay [7], 97.4 µM.

For `CCCSc1nc(-c2ccc(OC)cc2)c(C#N)c(=O)n1C1OC(COC(C)=O)C(OC(C)=O)C(OC(C)=O)C1OC(C)=O` (stereo not given), the TGI in [9], in assay [2], in assay [3], in assay [10] and in assay [6] was over 100 µM each time. Moreover, in assay [6], the GI50 is > 100 µM and 45.4 µM.

Consider `CCC(C(=O)C(=O)OC)P1(=O)OC(C)(C)CN1C(C)(C)C` (stereo not given), for which the TGI in assay [1], in assay [9], in [2], in assay [3], in assay [4] and in assay [10] was over 100 µM each time. In addition, the TGI in [5], in [6] and in [7] was over 100 µM each time.

Take `CC(=O)OC1CCC2C3CCc4c(C)ccc(OS(=O)(=O)c5ccccc5)c4C3CCC12C` (stereo not given): the TGI was over 100 µM in assay [1]; over 100 µM in assay [9]; over 100 µM in [2]; over 100 µM in assay [3]; over 100 µM in assay [10]; 23.1 µM in assay [5]. Also, the TGI in [6] and in assay [7] was over 100 µM each time.

As for `Cc1cnc2c(c1)C(=O)C1=C(C2=O)C2OC(=O)CC2OC1(C)C` (stereo not given), the TGI in [1] amounted to 0.826 µM; in [8], 0.693 µM; in assay [9], 1.25 µM; in [3] it was 2.28 µM; in assay [4], 2.19 µM; in [10], 0.623 µM. Moreover, the TGI in assay [5] came out at 0.997 µM; in assay [6], 2.61 µM; in [7], 1.95 µM.

`COc1cc2c(c(O)c1OC)C(=O)C(Cc1ccc(O)cc1)CO2` (stereo not given): the TGI was 36.5 µM in [8]; over 100 µM in assay [9]; over 100 µM in assay [2]; over 100 µM in assay [3]; over 100 µM in [4]; over 100 µM in assay [10]. Further, the TGI in [5] was 49 µM; in assay [6], 74.1 µM; in [7], over 100 µM.

As to `Cc1ccc(C2=CC(=O)/C(=C\C(=O)c3ccc(Cl)cc3)O2)cc1`, the TGI in assay [1] is over 100 µM; in assay [8] it was 55.1 µM; in assay [9], 15.1 µM; in assay [2], 41.7 µM; in assay [4] it was 14.6 µM; in assay [10], 36.3 µM. Besides, the TGI in assay [5] was 33.2 µM; in [6] it was over 100 µM; in [7], 9.67 µM.

For `N#Cc1nc(NC(=O)c2ccccc2C(=O)O)c(C#N)[nH]1`, the TGI in [1], in assay [8], in assay [9], in assay [2], in [4] and in [10] was over 100 µM throughout. In addition, the TGI in assay [5], in assay [6] and in assay [7] was over 100 µM in each case.

With `c1c2c(cc(-n3nnc4c3CCCCCC4)c1-n1nnc3c1CCCCCC3)CCCCCC2`, the TGI in [1] worked out at 23.6 µM; in [9] it was 19.8 µM; in assay [2], 40.6 µM; in assay [3], 18.9 µM; in [4], 38.7 µM; in assay [10], 23.8 µM. Besides, the TGI in assay [5] was 24.7 µM; in [6], 28.4 µM; in assay [7] it was 25.4 µM.

`CO[C@@H]1O[C@H](C(=O)c2ccccc2)[C@H]2OC(C)(C)O[C@@H]12`: the TGI in [1], in assay [8], in assay [2], in assay [3], in assay [4] and in assay [10] was over 100 µM in each case. The TGI in [5], in assay [6] and in assay [7] was over 100 µM in each case.
